The values below come from US8063218B2, “Imidazopyridine inhibitors of IAP” (Genentech, Inc., priority 2006, dated 2011).

One may read the Ki as the equilibrium dissociation constant of an inhibitor or competing ligand from its target.

The assay deals with T1, MLXBIR3SG (Homo sapiens, UniProt Q96CA5, S150G).
T1 sequence (Q96CA5 with tags, fused parts or gaps S150G limits assumed): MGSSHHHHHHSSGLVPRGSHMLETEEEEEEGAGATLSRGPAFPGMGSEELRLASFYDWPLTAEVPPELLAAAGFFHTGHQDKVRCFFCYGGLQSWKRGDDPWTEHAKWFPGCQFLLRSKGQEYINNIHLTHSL
Kind of assay: Fluorescence Polarization Peptide Binding Assay (competition with AVP-diPhe-FAM probe). As to conditions: competition: MLXBIR3SG at 30 nM, 5 nM AVP-diPhe-FAM probe; Ki determined from the IC50 values. As to the method: In the following experiments was used a chimeric BIR domain referred to as MLXBIR3SG in which 11 of 110 residues correspond to those found in XIAP-BIR3, while the remainder correspond to ML-IAP-BIR. […] The improved caspase-9 inhibition of the chimeric BIR domain MLXBIR3SG has been correlated with increased inhibition of doxorubicin-induced apoptosis when transfected into MCF7 cells. MLXBIR3SG sequence:
Fluorescence Polarization Peptide Binding Assay
Polarization experiments were performed on an Analyst HT 96-384 (Molecular Devices Corp.) according to the procedure of Keating, S. M., Marsters, J, Beresini, M., Ladner, C., Zioncheck, K., Clark, K., Arellano, F., and Bodary., S. (2000) in Proceedings of SPIE: In Vitro Diagnostic Instrumentation (Cohn, G. E., Ed.) pp 128-137, Bellingham, Wash. Samples for fluorescence polarization affinity measurements were prepared by addition of 1:2 serial dilutions starting at a final concentration of 5 μM of MLXBIR3SG in polarization buffer (50 mM Tris [pH 7.2], 120 mM NaCl, 1% bovine globulins 5 mM DTT and 0.05% octylglucoside) to 5-carboxyflourescein-conjugated AVPdi-Phe-NH2 (AVP-diPhe-FAM) at 5 nM final concentration.
The reactions were read after an incubation time of 10 minutes at room temperature with standard cut-off filters for the fluorescein fluorophore (λex=485 nm; λem=530 nm) in 96-well black HE96 plates (Molecular Devices Corp.). Fluorescence values were plotted as a function of the protein concentration, and the IC50s were obtained by fitting the data to a 4-parameter equation using Kaleidograph software (Synergy software, Reading, Pa.). Competition experiments were performed by addition of the MLXBIR3SG at 30 nM to wells containing 5 nM of the AVP-diPhe-FAM probe as well as 1:3 serial dilutions of antagonist compounds starting at a concentration of 300 μM in the polarization buffer. Samples were read after a 10-minute incubation. Fluorescence polarization values were plotted as a function of the antagonist concentration, and the IC50 values were obtained by fitting the data to a 4-parameter equation using Kaleidograph software (Synergy software, Reading, Pa.). Inhibition constants (Ki) for the antagonists were determined from the IC50 values.
(Polarisation of emitted light reports the rotation of a fluorescent probe.)
Take `CN[C@@H](C)C(=O)N[C@H](C(=O)N1CCC[C@H]1c1cn2c(-c3ccccc3)cccc2n1)C1CCOCC1` [Compound 1]: the Ki came out at 89.1 nM.
To `CN[C@@H](C)C(=O)N[C@H](C(=O)N1CCC[C@H]1c1cn2cccc(-c3cccc4ccccc34)c2n1)C1CCOCC1` [Compound 20] belongs 1830 nM.
Turning to `CN[C@@H](C)C(=O)N[C@H](C(=O)N1CCC[C@H]1c1cn2cccc(-c3ccc([N+](=O)[O-])cc3)c2n1)C1CCOCC1` [Compound 8], the Ki was 2310 nM.
As for `CN[C@@H](C)C(=O)N[C@H](C(=O)N1CCC[C@H]1c1cn2cccc(-c3ccc(N(C)C)cc3)c2n1)C1CCOCC1` [Compound 7], the figure is 18900 nM.
